In paper PMC9241915, “Functional Analysis of Feedback Inhibition-Insensitive Variants of N-Acetyl Glutamate Kinase Found in Sake Yeast Mutants with Ornithine Overproduction” (Microbiology Spectrum, 2022):

Experiments:
Assay in all cases: PK/LDH-coupled NADH oxidation at […] nm
Assay type in all cases: biochemical
[1] = target: T1, NAGK (N-acetyl glutamate kinase, Arg6) (Saccharomyces cerevisiae, UniProt Q01217, C119Y)
T1 construct: gene ARG5

[2] = target: T2, NAGK (N-acetyl glutamate kinase, Arg6) (Saccharomyces cerevisiae, UniProt Q01217, T340R)
T2 construct: gene ARG5
T2 sequence (Q01217 58-513 T340R): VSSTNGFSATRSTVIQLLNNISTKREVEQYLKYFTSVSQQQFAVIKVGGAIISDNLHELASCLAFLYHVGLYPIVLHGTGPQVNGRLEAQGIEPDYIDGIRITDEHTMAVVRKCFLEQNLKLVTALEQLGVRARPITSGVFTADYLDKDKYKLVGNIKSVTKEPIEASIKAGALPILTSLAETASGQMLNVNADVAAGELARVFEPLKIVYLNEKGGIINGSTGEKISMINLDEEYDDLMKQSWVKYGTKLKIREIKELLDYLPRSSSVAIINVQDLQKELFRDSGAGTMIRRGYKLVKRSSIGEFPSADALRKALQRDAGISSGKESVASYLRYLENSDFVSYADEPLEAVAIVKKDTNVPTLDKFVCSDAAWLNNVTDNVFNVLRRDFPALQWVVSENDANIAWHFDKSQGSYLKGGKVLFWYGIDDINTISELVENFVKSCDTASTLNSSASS

[3] = target: T3, NAGK (N-acetyl glutamate kinase, Arg6) (Saccharomyces cerevisiae, UniProt Q01217, T340S)
T3 construct: gene ARG5
T3 sequence (Q01217 58-513 T340S): as the sequence (Q01217 58-513 T340R) above, with R283S counted along it

[4] = target: T4, NAGK (N-acetyl glutamate kinase, Arg6) (Saccharomyces cerevisiae, UniProt Q01217, V267A)
T4 construct: gene ARG5
T4 sequence (Q01217 58-513 V267A): as the sequence (Q01217 58-513 T340R) above, with V210A, R283T counted along it

[5] = target: T5, NAGK (N-acetyl glutamate kinase, Arg6) (Saccharomyces cerevisiae, UniProt Q01217, T340A)
T5 construct: gene ARG5
T5 sequence (Q01217 58-513 T340A): as the sequence (Q01217 58-513 T340R) above, with R283A counted along it

[6] = target: T6, NAGK (N-acetyl glutamate kinase, Arg6) (Saccharomyces cerevisiae, UniProt Q01217, T340L)
T6 construct: gene ARG5
T6 sequence (Q01217 58-513 T340L): as the sequence (Q01217 58-513 T340R) above, with R283L counted along it

[7] = target: T7, NAGK (N-acetyl glutamate kinase, Arg6) (Saccharomyces cerevisiae, UniProt Q01217)
T7 construct: gene ARG5
T7 sequence (Q01217 58-513): as the sequence (Q01217 58-513 T340R) above, with R283T counted along it

[8] = target: T8, NAGK (N-acetyl glutamate kinase, Arg6) (Saccharomyces cerevisiae, UniProt Q01217, T340N)
T8 construct: gene ARG5
T8 sequence (Q01217 58-513 T340N): as the sequence (Q01217 58-513 T340R) above, with R283N counted along it

[9] = target: T9, NAGK (N-acetyl glutamate kinase, Arg6) (Saccharomyces cerevisiae, UniProt Q01217, T340E)
T9 construct: gene ARG5
T9 sequence (Q01217 58-513 T340E): as the sequence (Q01217 58-513 T340R) above, with R283E counted along it

T1 sequence (Q01217 58-513 C119Y): as the sequence (Q01217 58-513 T340R) above, with C62Y, R283T counted along it

Question: For `N=C(N)NCCC[C@H](N)C(=O)O` [arginine], which IC50 [1] is on record?
Answer: Its IC50 is 0.78 ± 0.05 mM.

Question: And the IC50 [2]?
Answer: The IC50 was 2.48 ± 0.67 mM.

Question: What about the IC50 [3] of the same compound?
Answer: The IC50 was 0.17 ± 0.12 mM.

Question: And the IC50 [4]?
Answer: Its IC50 is 2.83 ± 0.16 mM.

Question: And the IC50 [5]?
Answer: Its IC50 is 2.25 ± 0.2 mM.

Question: What about the IC50 [6] of the same compound?
Answer: Its IC50 is 10.5 ± 0.8 mM.

Question: What about the IC50 [7] of the same compound?
Answer: The IC50 was 0.09 mM.

Question: And the IC50 [8]?
Answer: Its IC50 is 24 ± 5.36 mM.

Question: And the IC50 [9]?
Answer: Its IC50 is 6.87 ± 1 mM.
